Data set [1] deals with human neutrophil elastase (HNE). Put plainly: HNE inhibition by peptide-loaded electrospun fibers. The format is biochemical. As to conditions: AAPV from PCL electrospun fibers, PBS, 37 °C.
Data set [2] deals with human neutrophil elastase (HNE; elastase from human leukocytes). Particulars: 1 h, 37 °C, 405 nm, n = 3, cited from earlier work. How it is done: Table 1 Inhibition of HNE activity by AAPV [8] and WAAPV at varying concentrations (n = 3). | column: HNE Inhibition (%) / AAPV || AAPV presented its maximum inhibitory capacity at a concentration of 50 μg/mL, which is in accordance with previous research conducted by our team. According to Namjoshi et al., the ability of HNE to digest substrates decreases with increasing inhibitor concentrations. […] Suc ...

The conditions of data set [3]: cited from earlier work. An excerpt:
Static contact angle measurements are a conventional method to determine the wettability of surfaces. This method involves assessing the angle formed between the solid surface, the liquid droplet, and the vapor phase at the three-phase contact point. […] Electrospun fibers unlo ...

Data set [4] relates to bacteria. Particulars: effectiveness limited to concentrations over this; cited from earlier work. The source says:
Despite its efficacy, the widespread pharmaceutical application of peptides faces obstacles, including limited stability in physiological settings and susceptibility to environmental factors. However, AAPV’s overall hydrophilicity (despite the presence of hydrophobic domains) tends to reduce its bioavailability and cellular tissue permeability. The attachment of hydrophobic carriers/molecules can overcome these limitations. Tryptophan (W) is an aromatic hydrophobic amino acid, which has been associated with the activation of antibacterial properties (disturbance of bacterial membra ...

The test system of data set [5] is S. aureus. As to conditions: loaded at the core of co-axial microfibers; cited from earlier work. Here is the method:
From the very first moments of incubation, PEG-containing fibers were the ones reporting the highest bacterial inhibitions, a minimum of ≈30% against S. aureus and ≈40% against E. coli. […] In general, the highest ratings for peptide-induced inhibition (in many instances potentiated by PEG) were ...

Data set [6] deals with HNE. As to conditions: AAPV from co-axial wet-spun microfibers; cited from earlier work. Here is the method: During the first 6 h of incubation, nearly 10% of HNE was inhibited by the peptide released from the PCL fibers. This is consistent with the data from Figure 5 since, at this point, >50% of the peptide molecules have been released. In fact, in the absence of PEG, HNE inhibition reached its maximum at this stage, maintaining the levels of enzyme activity in a constant manner until the 24 h period. […] However, considering its hydrophobic nature and affinity towards PCL, it i ...

Data set [7] is classed as physicochemical. Here is the method: Thermal responses of the fibers were assessed by a thermogravimetric analysis (TGA). Weight loss was monitored as the temperature increased from 25 to 600 °C at a heating rate of 10 °C/min under a dynamic nitrogen atmosphere with a flow rate of 200 mL/min, using an STA 7200 instrument (Hitachi®, Fukuoka, Japan) and aluminum pans. Results were plotted as the percentage of weight loss vs. temperature. Water contact angles were determined using an OCA 200 goniometer, Data Physics (Filderstadt, Germany), following an adaptation of the ASTM-[…]-08 standard. Droplets of 5.0 μL of dH2O, ejected at a rate of 2.0 μL/s, were used to measure the fibers' wettability via the sessile drop method. Six measurements were conducted per type of sample. Angles were recorded immediately after drop contact with the surface (≈10 s after contact).

For data set [8], the system named is Staphylococcus aureus ATCC 6538. The format is cell-based. As to conditions: ATCC 6538, 24 h. Here is the method: Minimum inhibitory concentration (MIC) of both peptides and PEG was determined, against S. aureus and E. coli by the broth microdilution method, based on a publication by the Clinical and Laboratory Standards Institute (CLSI) and European Committee on Antimicrobial Susceptibility Testing (EUCAST). For this test, AAPV and WAAPV were dissolved in dH2O at a concentration of 4.096 mg/mL, whereas PEG was also diluted in dH2O at 10.240 mg/mL, working as stock solutions. […] Then, a bacterium suspension at 1 × 10^6 CFUs/mL was added to the wells. Controls consisting of MHB and bacteria suspensions free from any of the active agents were produced, representing the negative and positive control samples, respectively. Absorbance readings were conducted with an EZ Read 2000 Microplate Reader at 600 nm before (0 h) and 24 h after incubation at 37 °C at 120 rpm. MIC was then perceived by the differences between the several absorbance readings. Minimum bactericidal concentrations (MBCs) were established by the culture of the same bacterium suspensions at MIC and their vicinities (dilutions before and after MIC value). Aliquots were collected and diluted in PBS (10^−1–10^−4). Then, the aliquots were plated in TSA and incubated at 37 °C during 24 h, after which the grown colonies were observed and counted.

Data set [9] is classed as physicochemical. As to conditions: not told. Here is the method:
The fibers’ capacity for air exchange (permeability) was examined according to standard ISO 9237 [24]. Air pressure of 200 Pa was applied on three samples of each typology in three randomly selected points of 1.33 cm^2 (1.30 cm diameter), and the permeability was measured. For determining the porosity (P%) of the samples [25], measurements of the amount of ethanol absorbed after 1 h of immersion in static conditions and RT (Equation (1)) were used:(1) P(%)=Ww−WD/ρEthanolVSample×100, where WW and WD are the weight of the wet and dry samples, respectively; ρethanol is the density of the ethanol at RT (0.789 g/cm^3); and Vsample is the volume of the wet sample, determined by measuring the 6 mm diameter samples’ thickness with a pachymeter. The experiment was performed in triplicate.

Like-named read-outs stand apart in the source and are kept apart here. Where a SMILES comes first, the peptide text is derived from it. Where no end group is shown, it is not given here.

Consider `CC(C)[C@H](NC(=O)[C@@H]1CCCN1C(=O)[C@H](C)NC(=O)[C@H](C)N)C(=O)O` (H-AAPV-OH), for which the main degradation step of free peptide was 200 °C.

For `CC(C)[C@H](NC(=O)[C@@H]1CCCN1C(=O)[C@H](C)NC(=O)[C@H](C)N)C(=O)O` [AAPV, alanine–alanine–proline–valine] (H-AAPV-OH), the “time of maximum HNE inhibition” value was 6 h in data set [1] and 24 h in data set [6]. For the same compound, the “HNE Inhibition” value in [2] (AAPV 0.10 μg/mL) is reported as 0.79 ± 0.008%; in data set [2] (AAPV 0.20 μg/mL), 2.37 ± 0.007%; in data set [2] (AAPV 0.39 μg/mL), 3.43 ± 0.005%; in data set [2] (AAPV 0.78 μg/mL) it was 4.07 ± 0.004%; in data set [2] (AAPV 1.56 μg/mL), 6.43 ± 0.005%; in data set [2] (AAPV 3.13 μg/mL), 8.07 ± 0.007%. In addition, the “HNE Inhibition” value in data set [2] (AAPV 6.25 μg/mL) is reported as 8.84 ± 0.002%; in data set [2] (AAPV 12.50 μg/mL), 9.56 ± 0.011%; in data set [2] (AAPV 25.00 μg/mL), 12.69 ± 0.002%; in data set [2] (AAPV 50.00 μg/mL), 16.89 ± 0.010%; in data set [2] (AAPV 100.00 μg/mL), 9.53 ± 0.010%; in [2] (AAPV 200.00 μg/mL, substrate N-MeO-Suc-Ala-Ala-Pro-Val-p-NA, 0.1 M Tris-HCl, HNE 45 mU) it was 5.74 ± 0.010%. Moreover, the “hydrophilicity of overall structure” value in data set [3] is recorded as “hydrophilic”. Besides, the effective antimicrobial concentration result in data set [4] is “over 2 mg/mL”. Moreover, the “S. aureus inhibitory activity” value in [5] is “found to potentiate this inhibitory activity against S. aureus”.

`CC(C)[C@H](NC(=O)[C@@H]1CCCN1C(=O)[C@H](C)NC(=O)[C@H](C)N)C(=O)O` [PCL + AAPV] (H-AAPV-OH): in data set [7], the “mass loss before main degradation step” value is roughly 8% and the “temperature at which (main) thermal degradation starts” value (from here on “temperature at which”) is “≈ 335 °C”.

Take H-WAAPV-OH: the main degradation step of free peptide stood at 200 °C.

As for WAAPV [PCL + WAAPV], in data set [7], the “mass loss before main degradation step” value is less than 4% and the “temperature at which” value is “≈ 365 °C”.

Consider WAAPV [WAAPV], for which, in [8], the MBC amounted to 2.048 mg/mL and the MIC came out at 2.048 mg/mL.

On to polycaprolactone [PCL], for which the “Air Permeability” value in [9] came to 0.523 ± 0.057 L/min. Besides, in data set [7], the “mass loss before main degradation step” value is on record as less than 4%, the “temperature at which” value was “≈ 370 °C” and the “temperature range of main thermal degradation” value was 370-435 °C.

What is called MBC is the smallest concentration meeting the test's criterion for killing. In general, MIC refers to the lowest concentration that inhibits growth of the organism. Read a low MIC as greater potency.

The values are drawn from article PMC11280037, “Inhibition of Enzyme and Bacteria Activities in Diabetic Ulcer-like Scenarios via WAAPV-Loaded Electrospun Fibers” (Pharmaceutics, 2024).
